IC50, half-life and solubility data for 12 compounds are collected here from patent EP4752152A1, “STEROID COMPOUND, AND PREPARATION METHOD THEREFOR AND USE THEREOF” (Cholesgen (Shanghai) Co.Ltd., priority 2023, dated 2025).

One data set deals with SREBP pathway. Nature of the data set: SREBP luciferase reporter gene system (SRE-luciferase assay). It counts as cell-based, human. The following applies: Homo sapiens, Huh-7, 16 h, Huh-7/SRE-luc cells, sterol-deficient medium, 0.01-10 µM. In short, it runs like this: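 Readout was SRE-driven luciferase normalised to GFP fluorescence in lysates of stably transfected Huh-7/SRE-luc hepatoma cells. Compounds (0.01, 0.03, 0.1, 0.3, 1.0, 3.0, 10 µM; DMSO control) were applied for 16 h in sterol-depleted medium with 2 µM lovastatin and 10 µM mevalonate; IC50 from variable-slope fit.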
In general terms: Reporter assays use an easily measured gene product as a stand-in for the process of interest.

The nature of data set [1]: Metabolic stability experiment of mouse liver microsomes. It counts as in vitro ADME. The method, then: PB solution (100 mM), MgCl2 solution (300 mM), NADPH solution (2.04 mM), and mouse liver microsome (SHQY catalog number: M1000, batch number: 2110330) solution (1.00 mg/mL) were prepared respectively. […] Then, 100 µL of mouse liver microsome solution was added to a 96-well sample plate. For the 0 min sample, acetonitrile solution containing the internal standard was first added; then, 2 µL of 100 µM working solution was added; followed by the addition of 98 µL of pre-warmed 2.04 mM NADPH at 37°C. For the 5 min, 15 min, 30 min, 45 min, and 60 min samples, 2 µL of 100 µM working solution was first added; followed by the addition of 98 µL of pre-warmed 2.04 mM NADPH at 37°C to initiate the reaction; upon reaching the respective time points, a solution of acetonitrile containing the internal standard was added to terminate the reaction. For the NCF60 sample, 2 µL of 100 µM working solution was first added; followed by the addition of 98 µL of pre-warmed PB at 37°C to initiate the reaction; upon reaching the respective time points, a solution of acetonitrile containing the internal standard was added to terminate the reaction. During the experiment, all samples were incubated in a 37°C water bath. All samples were shaken on an oscillator at 800 rpm for 10 min, then centrifuged at 3200 g for 20 min. The supernatant was aspirated, diluted with deionized water at the corresponding ratio, and analyzed by LC-MS/MS. The remaining percentage of the compound at each time point was obtained by dividing the peak area ratio of the compound at 5, 15, 30, 45, and 60 min by the peak area ratio at 0 min. The half-life (T1/2) of the compound was then calculated using Excel. Table 2: Mouse liver microsome stability results of compounds from some examples
On the technique in general: Liver microsomes are a subcellular fraction often used to study metabolism.

Data set [2] can be described thus: Solubility in fasted-state simulated intestinal fluid (FaSSIF). It counts as physicochemical. The settings on record: FaSSIF, pH 6.5, fassif, kinetic from dmso stock, FaSSIF pH 6.5, 300 µM sample solution, room temperature. An outline of the steps:
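Compound from 10.0 mM DMSO stock added to FaSSIF (phosphate/NaCl buffer, pH 6.5) at 300 µM nominal, shaken 1 h at room temperature, 1000 rpm. After centrifugation, supernatant concentration quantified by LC-MS/MS.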

Data set [3] relates to Fatty Acid Synthase (FASN) gene. Nature of the data set: Inhibition of FASN gene expression (qPCR) in Huh-7 cells. The following applies: Homo sapiens, Huh-7, 16 h, Huh-7 cells, starvation medium, 16 hours, qPCR, read-out: FASN IC50. It counts as cell-based, human. An outline of the steps:
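IC50 derived by four-parameter fit of FASN expression inhibition versus DMSO, measured by RT-qPCR. Compound exposure lasted 16 h at five 3-fold concentrations from 3000 nM, applied to Huh-7 cells in sterol-depleting medium with 5% LPDS, 2 µM lovastatin and 10 µM mevalonate.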

SMILES strings stand for the structures. In brackets after ≈: the same amount, converted by molar mass. Where two headings read alike, the source gives them in different places.

As a reminder, the IC50 is the concentration that inhibits the measured activity by half. As usually defined, the half-life is the time in which the quantity being followed falls by half. Broadly, the solubility is how much of the substance goes into solution per volume. A low value points to little dissolved substance. In the case of `COc1cccc(F)c1[C@@H](O)CCC[C@@H](C)[C@H]1CC[C@H]2[C@H]3[C@H](CC[C@]12C)[C@@]1(C)CC[C@H](O)[C@H](O)[C@@H]1CC3(F)F` [Compound 127, (1R,3aS,3bS,5aR,6R,7S,9aR,9bS,11aR)-4,4-difluoro-1-[(2R,6S)-6-(2-fluoro-6-methoxyphenyl)-6-hydroxyhexan-2-yl]-9a,11a-dimethylhexadecahydro-1H-cyclopenta[1,2-a]phenanthrene-6,7-diol], the figures for the 50% inhibitory concentration (IC50) (in the data set on SREBP pathway; in data set [3] (class symbols)) were 0.07 µM and 0.2 to 0.5 µM, respectively. For the same compound, the half-life at 1 µM in data set [1] was determined as 1.87 h. The compound also came in with a solubility at 1 h in data set [2] of 209 µM (≈ 116 µg/mL).

For the compound `COc1cccc(C(O)CCC[C@@H](C)[C@H]2CC[C@H]3[C@H]4[C@H](CC[C@]23C)[C@@]2(C)CC[C@H](O)[C@H](O)[C@@H]2CC4(F)F)c1F` (stereo partly drawn) [Compound 63, (1R,3aS,3bS,5aR,6R,7S,9aR,9bS,11aR)-4,4-difluoro-1-[(2R)-6-(2-fluoro-3-methoxyphenyl)-6-hydroxyhexan-2-yl]-9a,11a-dimethylhexadecahydro-1H-cyclopenta[1,2-a]phenanthrene-6,7-diol], the IC50 in the data set with SREBP pathway was 0.121 µM; in data set [3] (class symbols), less than 0.2 µM. For the same compound, the half-life at 1 µM in data set [1] is more than 3.08 h. This compound also came in with a solubility at 1 h in data set [2] of 147 µM (≈ 81.1 µg/mL).

With `COc1cc(F)ccc1[C@H](O)CCC[C@@H](C)[C@H]1CC[C@H]2[C@H]3[C@H](CC[C@]12C)[C@@]1(C)CC[C@H](O)[C@H](O)[C@@H]1CC3(F)F` [Compound 141, (1R,3aS,3bS,5aR,6R,7S,9aR,9bS,11aR)-4,4-difluoro-1-[(2R,6R)-6-(4-fluoro-2-methoxyphenyl)-6-hydroxyhexan-2-yl]-9a,11a-dimethylhexadecahydro-1H-cyclopenta[1,2-a]phenanthrene-6,7-diol], the results for the IC50 (in the data set with SREBP pathway; in data set [3] (class symbols)) were 0.017 µM and less than 0.2 µM, respectively. In data set [1], this compound yielded a half-life at 1 µM of 4.85 h. In data set [2], this compound registered a solubility at 1 h of 150 µM (≈ 82.9 µg/mL).

With `COc1cc(F)ccc1C(O)CCC[C@@H](C)[C@H]1CC[C@H]2[C@H]3[C@H](CC[C@]12C)[C@@]1(C)CC[C@H](O)[C@H](O)[C@@H]1CC3(F)F` (stereo partly drawn) [Compound 35, (1R,3aS,3bS,5aR,6R,7S,9aR,9bS,11aR)-4,4-difluoro-1-[(2R)-6-(4-fluoro-2-methoxyphenyl)-6-hydroxyhexan-2-yl]-9a,11a-dimethylhexadecahydro-1H-cyclopenta[1,2-a]phenanthrene-6,7-diol], the IC50 in the data set with SREBP pathway was 0.051 µM; in data set [3] (class symbols) it was 0.2 to 0.5 µM. For the same compound, the half-life at 1 µM in data set [1] is more than 3.1 h. For the same compound, the solubility at 1 h in data set [2] is 160 µM (≈ 88.4 µg/mL).

On to `COc1ncccc1C(O)CCC[C@@H](C)[C@H]1CC[C@H]2[C@H]3[C@H](CC[C@]12C)[C@@]1(C)CC[C@H](O)[C@H](O)[C@@H]1CC3(F)F` (stereo partly drawn) [Compound 81, (1R,3aS,3bS,5aR,6R,7S,9aR,9bS,11aR)-4,4-difluoro-1-[(2R)-6-(2-methoxypyridin-3-yl)-6-hydroxyhexan-2-yl]-9a,11a-dimethylhexadecahydro-1H-cyclopenta[1,2-a]phenanthrene-6,7-diol], for which the concentration for half-maximal inhibition (IC50) is 0.11 µM in the data set with SREBP pathway and less than 0.2 µM in data set [3] (class symbols). In data set [1], the half-life at 1 µM turned out to be 1.91 h. This compound came in with a solubility at 1 h in data set [2] of 279 µM (≈ 150 µg/mL).

Regarding `COc1cc(F)cc(F)c1C(O)CCC[C@@H](C)[C@H]1CC[C@H]2[C@H]3[C@H](CC[C@]12C)[C@@]1(C)CC[C@H](O)[C@H](O)[C@@H]1CC3(F)F` (stereo partly drawn) [Compound 98, (1R,3aS,3bS,5aR,6R,7S,9aR,9bS,11aR)-1-[(2R)-6-(4,6-difluoro-2-methoxyphenyl)-6-hydroxyhexan-2-yl]-4,4-difluoro-9a,11a-dimethylhexadecahydro-1H-cyclopenta[1,2-a]phenanthrene-6,7-diol], the IC50 is 0.095 µM in the data set with SREBP pathway and less than 0.2 µM in data set [3] (class symbols). In data set [1], this compound came in with a half-life at 1 µM of 4.17 h. The compound further came in with a solubility at 1 h in data set [2] of 199 µM (≈ 114 µg/mL).

For `COc1cccc(F)c1[C@H](O)CCC[C@@H](C)[C@H]1CC[C@H]2[C@H]3[C@H](CC[C@]12C)[C@@]1(C)CC[C@H](O)[C@H](O)[C@@H]1CC3(F)F` [Compound 128, (1R,3aS,3bS,5aR,6R,7S,9aR,9bS,11aR)-4,4-difluoro-1-[(2R,6R)-6-(2-fluoro-6-methoxyphenyl)-6-hydroxyhexan-2-yl]-9a,11a-dimethylhexadecahydro-1H-cyclopenta[1,2-a]phenanthrene-6,7-diol], the IC50 in the data set with SREBP pathway is 0.139 µM; in data set [3] (class symbols), 0.2 to 0.5 µM. The compound also gave a half-life at 1 µM in data set [1] of more than 3.1 h. In data set [2], this compound yielded a solubility at 1 h of 199 µM (≈ 110 µg/mL).

In the case of `COc1nc(F)ccc1C(O)CCC[C@@H](C)[C@H]1CC[C@H]2[C@H]3[C@H](CC[C@]12C)[C@@]1(C)CC[C@H](O)[C@H](O)[C@@H]1CC3(F)F` (stereo partly drawn) [Compound 108, (1R,3aS,3bS,5aR,6R,7S,9aR,9bS,11aR)-4,4-difluoro-1-[(2R)-6-(6-fluoro-2-methoxypyridin-3-yl)-6-hydroxyhexan-2-yl]-9a,11a-dimethylhexadecahydro-1H-cyclopenta[1,2-a]phenanthrene-6,7-diol], the half-maximal inhibitory concentration (IC50) with SREBP pathway was 0.0359 µM; in data set [3] (class symbols), less than 0.2 µM. This compound also had a half-life at 1 µM in data set [1] of 3.08 h. This compound also showed a solubility at 1 h in data set [2] of 303 µM (≈ 168 µg/mL).

With `COc1ccccc1C(O)CCC[C@@H](C)[C@H]1CC[C@H]2[C@H]3[C@H](CC[C@]12C)[C@@]1(C)CC[C@H](O)[C@H](O)[C@@H]1CC3(F)F` (stereo partly drawn) [Compound 37, (1R,3aS,3bS,5aR,6R,7S,9aR,9bS,11aR)-4,4-difluoro-1-[(2R)-6-hydroxy-6-(2-methoxyphenyl)hexan-2-yl]-9a,11a-dimethylhexadecahydro-1H-cyclopenta[1,2-a]phenanthrene-6,7-diol], the results for the IC50 (in the data set with SREBP pathway; in data set [3] (class symbols)) were 0.03 µM and 0.2 to 0.5 µM, respectively. The half-life at 1 µM in data set [1] is 2.19 h. The same compound showed a solubility at 1 h in data set [2] of 207 µM (≈ 111 µg/mL).

On to `C[C@H](CCCC(C)(C)O)[C@H]1CC[C@@]2(C)C3=C(CC[C@]12C)[C@@]1(C)CC[C@H](O)C(C)(C)[C@@H]1CC3` [Comparative compound 1, reference compound], for which the half-maximal inhibitory concentration (IC50) in the data set on SREBP pathway is 0.293 µM; in data set [3] (numeric value) it was 0.959 µM. Besides, the half-life at 1 µM in data set [1] came to 0.131 h. The compound also showed a solubility at 1 h in data set [2] of 105 µM (≈ 46.7 µg/mL).

`COc1cc(F)ccc1[C@@H](O)CCC[C@@H](C)[C@H]1CC[C@H]2[C@H]3[C@H](CC[C@]12C)[C@@]1(C)CC[C@H](O)[C@H](O)[C@@H]1CC3(F)F` [Compound 140, (1R,3aS,3bS,5aR,6R,7S,9aR,9bS,11aR)-4,4-difluoro-1-[(2R,6S)-6-(4-fluoro-2-methoxyphenyl)-6-hydroxyhexan-2-yl]-9a,11a-dimethylhexadecahydro-1H-cyclopenta[1,2-a]phenanthrene-6,7-diol]: the IC50 was 0.11 µM in the data set on SREBP pathway and less than 0.2 µM in data set [3] (class symbols). This compound also showed a half-life at 1 µM in data set [1] of 5.35 h. Moreover, the solubility at 1 h in data set [2] was 178 µM (≈ 98.4 µg/mL).

Turning to `COc1cccc(F)c1C(O)CCC[C@@H](C)[C@H]1CC[C@H]2[C@H]3[C@H](CC[C@]12C)[C@@]1(C)CC[C@H](O)[C@H](O)[C@@H]1CC3(F)F` (stereo partly drawn) [Compound 49, (1R,3aS,3bS,5aR,6R,7S,9aR,9bS,11aR)-4,4-difluoro-1-[(2R)-6-(2-fluoro-6-methoxyphenyl)-6-hydroxyhexan-2-yl]-9a,11a-dimethylhexadecahydro-1H-cyclopenta[1,2-a]phenanthrene-6,7-diol], the half-maximal inhibitory concentration (IC50) in the data set with SREBP pathway is 0.06 µM; in data set [3] (class symbols), 0.2 to 0.5 µM. Also, in data set [1], the half-life at 1 µM is 1.88 h. In data set [2], the solubility at 1 h is 281 µM (≈ 155 µg/mL).
